Measured values as given in ChEMBL document CHEMBL1201862, “PubChem BioAssay data set” (2004).
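Each compound was tested at five concentrations against cells in 96-well plates for 48 hours. GI50 = concentration required for 50% inhibition of growth.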 The source made the active and inactive calls. Cut-off read from the data, not from the text of the source: active = GI50 up to about 1.1 µM and inactive = higher.

Key:
Experiment in all cases: NCI-60 cell line screen, 48 h
DMS-273 = tested on: DMS-273
M19-MEL = tested on: M19-MEL
LXFL 529 = tested on: LXFL 529
DLD-1 = tested on: DLD-1
HOP-18 = tested on: HOP-18
DMS-114 = tested on: DMS-114
SNB-78 = tested on: SNB-78
XF498 = tested on: XF498
RXF 631 = tested on: RXF 631

Measured: GI50

CCOC(=O)[C@H]1Nc2ccc(Cl)cc2[C@H]2OCC[C@@H]12
inactive: DMS-273 > 100 µM | M19-MEL > 100 µM | LXFL 529 > 100 µM | DLD-1 > 100 µM | HOP-18 > 100 µM | DMS-114 > 100 µM | SNB-78 > 100 µM | XF498 > 100 µM | RXF 631 > 100 µM
